The IC50 is the concentration that gives 50% inhibition.

Each structure is given as a SMILES string. Where only a bound is given, the exact number is not on record here.

The experiment deals with KRasG12C (M1-K169, biotinylated on the N-terminus) (Homo sapiens (Human), UniProt P01116, G12C). As to the kind of experiment: Covalent competition assay: scintillation proximity assay (SPA) quantifying covalent modification of KRASG12C. The experiment is classed as binding. The note with it: competition with radiolabeled covalent probe (Compound B/Compound A), 2 hours incubation, 10 nM KRasG12C. As for the experimental part:
Cells were harvested by centrifugation and frozen at −80° C. until further processing. […] The cells were lysed by 4 passages through an Avestin Emulsiflex at about 20000 psi and insoluble debris removed by centrifugation and filtered through a 0.45 µm Durapore membrane (Millipore). […] Eluted protein fractions were analyzed by Novex NuPage 4-12% PAGE. […] The protein in the flow through was subjected to a final polishing step on a HiLoad 16/60 Superdex 200 prep grade size-exclusion column pre-equilibrated with SEC-buffer (20 mM HEPES pH 7.4, 150 mM NaCl, 5 mM MgCl2, 1 µM GDP). Positive fractions were determined by PAGE (Novex NuPage 4-12% BisTris) analysis.
A scintillation proximity assay (SPA) was used to determine the potency of the compounds.
This assay measures the ability of the test compound to compete with the radiolabeled covalent probe for binding to and covalently modify KRASG12C.
(see above for synthesis of Compound A and Compound B). A serial dilution of the compounds to be tested is mixed with a fixed concentration of the radiolabeled covalent probe before incubation with KRASG12C:GDP as described below. KRASG12C can either be bound by the radiolabeled covalent probe (Compound B), resulting in light being emitted from the beads, or bound by covalent test compound preventing signal generation.
A 1/20 isotopic dilution of labeled (Compound B) and non-labeled covalent (Compound A) probe was prepared and added to all wells on the plate. The reaction was started by addition of KRasG12C (M1-K169, biotinylated on the N-terminus) to the compounds and incubated for 2 hours with continuous agitation allowing for full modification of KRasG12C with probe or test compounds. Final concentrations in an assay volume of 40 μL were 10 nM KRasG12C, 25 nM radio-ligand and 475 nM unlabelled ligand. The assay buffer contained 20 mM Tris-HCl pH 7.5 (Invitrogen), 150 mM NaCl (Sigma Aldrich), 0.1 mM MgCl2 (Sigma Aldrich), and 0.01% Tween-20 (Sigma Aldrich). Following addition of 50 μL of a 400 μg/mL suspension of streptavidin-coated YSi beads (Perkin Elmer), plates were incubated for a further 30 min with continuous agitation before reading the plates on a scintillation counter (Topcount NXT 384 (Packard).
Evaluation was carried out using assay data analysis software (such as the standard Novartis in-house Helios software application, Novartis Institutes for BioMedical Research, unpublished) using the methods described in Formenko et al., Robust Regression for high-throughput screening, Computer Methods and Programs in Biomedicine, 2006, 82, 31-37. Following normalization of activity values for the wells to % inhibition (% inhibition=[(high control−sample)/(high control−low control)]×100), IC50 fitting was carried out from the duplicate determinations present on each plate according to Formenko et al., 2006.
Evaluation can also be carried out using commercially available software which is designed to derive IC50 values using 4-parameter fits (e.g. GraphPad Prism, XL fit).
For orientation: In a scintillation proximity assay essentially only radioactivity close to the scintillant gives light.
On to `[2H]C([2H])([2H])c1c(-c2c(Cl)c(Cl)cc3[nH]ncc23)c(N2CC[C@@H](CN3CCOCC3)CC2(C)C)nn1C1CC2(C1)CN(C(=O)C=C)C2` (single isomer, unassigned) [Example 224a], for which the IC50 is over 5000 nM.

Turning to `C=CC(=O)N1CC2(CC(n3nc(N4CCS(=O)(=O)CC4(C)C)c(-c4c(Cl)c(C)cc5[nH]ncc45)c3C)C2)C1` (single isomer, unassigned) [Example 82a, 1-(6-(4-(5-chloro-6-methyl-1H-indazol-4-yl)-3-(3,3-dimethyl-1,1-dioxidothiomorpholino)-5-methyl-1H-pyrazol-1-yl)-2-azaspiro[3.3]heptan-2-yl)prop-2-en-1-one], the IC50 amounted to 50000 nM.

As to `C=CC(=O)N1CC2(CC(n3nc(N4CCN(C[C@@H]5COCCO5)C[C@]4(C)CC)c(-c4c(Cl)c(C)cc5[nH]ncc45)c3C)C2)C1` (single isomer, unassigned) [Example 173b], the IC50 is 5 nM.

As to `C=CC(=O)N1CC2(CC(n3nc(N4CCC(O)CC4(C)C)c(-c4c(Cl)c(C)cc5[nH]ncc45)c3C)C2)C1` (single isomer, unassigned) [Example 29b, 1-(6-(4-(5-chloro-6-methyl-1H-indazol-4-yl)-3-(4-hydroxy-2,2-dimethylpiperidin-1-yl)-5-methyl-1H-pyrazol-1-yl)-2-azaspiro[3.3]heptan-2-yl)prop-2-en-1-one], the IC50 was 32 nM.

`C=CC(=O)N1CC2(CC(n3nc(N4CCC(C)(O)CC4(C)C)c(-c4c(Cl)c(C)cc5[nH]ncc45)c3C)C2)C1` (single isomer, unassigned) [Example 28a, 1-(6-(4-(5-chloro-6-methyl-1H-indazol-4-yl)-3-(4-hydroxy-2,2,4-trimethylpiperidin-1-yl)-5-methyl-1H-pyrazol-1-yl)-2-azaspiro[3.3]heptan-2-yl)prop-2-en-1-one]: the IC50 amounted to 76 nM.

In the case of `C=CC(=O)N1CC2(CC(n3nc(N4CC[C@@H](CN5CCN(CCO)C(=O)C5)CC4(C)C)c(-c4c(Cl)c(Cl)cc5[nH]ncc45)c3C)C2)C1` (single isomer, unassigned) [Example 251b], the IC50 is 9 nM.

Regarding `C=CC(=O)N1CC2(CC(n3nc(N4CCCCC4(C)C)c(-c4c(Cl)c(C)cc5[nH]ncc45)c3C)C2)C1` (single isomer, unassigned) [Example 103a, 1-(6-(4-(5-chloro-6-methyl-1H-indazol-4-yl)-3-(2,2-dimethylpiperidin-1-yl)-5-methyl-1H-pyrazol-1-yl)-2-azaspiro[3.3]heptan-2-yl)prop-2-en-1-one], the IC50 is over 5000 nM.

`C=CC(=O)N1CC2(CC(n3nc(N4CCN(C5(C)COC5)CC45CCC5)c(-c4c(Cl)c(C)cc5[nH]ncc45)c3C)C2)C1` (single isomer, unassigned) [Example 191a, 1-(6-(4-(5-Chloro-6-methyl-1H-indazol-4-yl)-5-methyl-3-(8-(3-methyloxetan-3-yl)-5,8-diazaspiro[3.5]nonan-5-yl)-1H-pyrazol-1-yl)-2-azaspiro[3.3]heptan-2-yl)prop-2-en-1-one]: the IC50 is over 5000 nM.

Regarding `C=CC(=O)N1CC2(CC(n3nc(N4CCC5C(CC(=O)N5C)C4)c(-c4c(Cl)c(C)cc5[nH]ncc45)c3C)C2)C1` (single isomer, unassigned) [Example 39a, 5-(1-(2-acryloyl-2-azaspiro[3.3]heptan-6-yl)-4-(5-chloro-6-methyl-1H-indazol-4-yl)-5-methyl-1H-pyrazol-3-yl)-1-methyloctahydro-2H-pyrrolo[3,2-c]pyridin-2-one], the IC50 is 42100 nM.

Consider `C=CC(=O)N1CC2(CC(n3nc(N4CC[C@@H](CN5CCN(C(=O)NC)CC5)CC4(C)C)c(-c4c(Cl)c(Cl)cc5[nH]ncc45)c3C)C2)C1` (single isomer, unassigned) [Example 289a], for which the IC50 was 3300 nM.

For `C=CC(=O)N1CC2(CC(n3nc(N4CCN(C(=O)[C@@H]5CCCO5)CC45CCC5)c(-c4c(Cl)c(C)cc5[nH]ncc45)c3C)C2)C1` (single isomer, unassigned) [Example 124a], the IC50 is over 5000 nM.

As for `C=CC(=O)N1CC2(CC(n3nc(N4CC[C@H](CN5CCOCC5)CC4(C)C)c(-c4c(Cl)c(Cl)cc5[nH]ncc45)c3C)C2)C1` (single isomer, unassigned) [Example 214a], the IC50 worked out at 290 nM.

Take `CC#CC(=O)N1CC2(CC(n3nc(N4CCN(C5COC5)CC45CCC5)c(-c4c(Cl)c(C)cc5[nH]ncc45)c3C)C2)C1` (single isomer, unassigned) [Example 78b, 1-(6-(4-(5-chloro-6-methyl-1H-indazol-4-yl)-5-methyl-3-(8-(oxetan-3-yl)-5,8-diazaspiro[3.5]nonan-5-yl)-1H-pyrazol-1-yl)-2-azaspiro[3.3]heptan-2-yl)but-2-yn-1-one]: the IC50 was over 5000 nM.

In the case of `C=CC(=O)N1CC2(CC(n3nc(N4CC[C@@H](CN5CC6(CCCN6C(C)=O)C5)CC4(C)C)c(-c4c(Cl)c(Cl)cc5[nH]ncc45)c3C)C2)C1` (single isomer, unassigned) [Example 285a], the IC50 stood at 4600 nM.

As for `C=CC(=O)N1CC2(CC(n3nc(N4CC[C@@H](N(C)C(C)=O)CC4(C)C)c(-c4c(Cl)c(C)cc5[nH]ncc45)c3C)C2)C1` (single isomer, unassigned) [Example 69b], the IC50 was 15 nM.

For `C=CC(=O)N1CC2(CC(n3nc(N4CCN(C5COC5)C[C@]4(C)COC)c(-c4c(Cl)c(C)cc5[nH]ncc45)c3C)C2)C1` (single isomer, unassigned) [Example 147b], the IC50 was 923 nM.

Regarding `C=CC(=O)N1CC2(CC(n3nc(N4CCC(N(C)C5COC5)CC45CCC5)c(-c4c(Cl)c(C)cc5[nH]nc(N)c45)c3C)C2)C1` (single isomer, unassigned) [Example 115b, 1-(6-(4-(3-amino-5-chloro-6-methyl-1H-indazol-4-yl)-5-methyl-3-(8-(methyl(oxetan-3-yl)amino)-5-azaspiro[3.5]nonan-5-yl)-1H-pyrazol-1-yl)-2-azaspiro[3.3]heptan-2-yl)prop-2-en-1-one], the IC50 stood at 246 nM.

With `C=CC(=O)N1CC2(CC(n3nc(N4CCC(N(CCOC)CCOC)CC45CCC5)c(-c4c(Cl)c(Cl)cc5[nH]ncc45)c3C)C2)C1` (single isomer, unassigned) [Example 80b, 1-(6-(3-(8-(bis(2-methoxyethyl)amino)-5-azaspiro[3.5]nonan-5-yl)-4-(5,6-dichloro-1H-indazol-4-yl)-5-methyl-1H-pyrazol-1-yl)-2-azaspiro[3.3]heptan-2-yl)prop-2-en-1-one], the IC50 is 7 nM.

As for `C=CC(=O)N1CC2(CC(n3nc(N4CCN(C[C@@H]5COCCO5)C[C@]4(C)CCOC)c(-c4c(Cl)c(C)cc5[nH]ncc45)c3C)C2)C1` (single isomer, unassigned) [Example 85a], the IC50 was 5000 nM.

On to `C=C(F)C(=O)N1CC2(CC(n3nc(N4CCN(C[C@@H]5COCCO5)C[C@]4(C)COC)c(-c4c(Cl)c(Cl)cc5[nH]ncc45)c3C)C2)C1` (single isomer, unassigned) [Example 184b], for which the IC50 came out at 61 nM.

Regarding `C=CC(=O)N1CC2(CC(n3nc(N4CCN(C(=O)C5CC5)CC4(C)C)c(-c4c(Cl)c(C)cc5[nH]ncc45)c3C)C2)C1` (single isomer, unassigned) [Example 127b, 1-(6-(4-(5-chloro-6-methyl-1H-indazol-4-yl)-3-(4-(cyclopropanecarbonyl)-2,2-dimethylpiperazin-1-yl)-5-methyl-1H-pyrazol-1-yl)-2-azaspiro[3.3]heptan-2-yl)prop-2-en-1-one], the IC50 was 20 nM.

On to `C=CC(=O)N1CC2(CC(n3nc(N4CCN(C[C@@H]5COCCO5)C[C@]4(C)CC)c(-c4c(Cl)cnc5[nH]ncc45)c3C)C2)C1` (single isomer, unassigned) [Example 81b], for which the IC50 stood at 585 nM.

With `C=CC(=O)N1CC2(CC(n3nc(N4CCn5ccnc5C4(C)C)c(-c4c(Cl)c(C)cc5[nH]ncc45)c3C)C2)C1` (single isomer, unassigned) [Example 23a, 1-(6-(4-(5-chloro-6-methyl-1H-indazol-4-yl)-3-(8,8-dimethyl-5,6-dihydroimidazo[1,2-a]pyrazin-7(8H)-yl)-5-methyl-1H-pyrazol-1-yl)-2-azaspiro[3.3]heptan-2-yl)prop-2-en-1-one], the IC50 is over 50000 nM.

Source of the values: patent publication US20240317721A1, “PYRAZOLYL DERIVATIVES AS INHIBITORS OF THE KRAS MUTANT PROTEIN” (NOVARTIS AG, priority 2021, published 2024).
